Key:
[1] = system: critical physiological systems; conditions: doses up to 300 mg/kg in rats; cited from earlier work
P-glycoprotein = target: T1, P-glycoprotein (Homo sapiens, UniProt P08183); conditions: TA-8995-05; cited from earlier work
T1 construct: endogenous in cells; host or cells: study subjects in vivo (clinical study)

[2] = healthy volunteers; single doses up to 150 mg and multiple doses up to 25 mg/day for 21 days; cited from earlier work
Lp(a) = assay: ROSE2 phase 2b clinical trial - Lp(a); assay type: in vivo, human; conditions: mITT Population; obicetrapib 10 mg, ezetimibe 10 mg
Experimental: (§1) The exploratory objectives of this study include the following: • To evaluate the effect of obicetrapib 10 mg+ezetimibe 10 mg combination therapy and obicetrapib 10 mg monotherapy, when used as an adjunct to high-intensity statin therapy, on non-high-density lipoprotein cholesterol (non-HDL-C), very low-density lipoprotein cholesterol (VLDL-C), HDL-C, TG, ApoE, Lp(a), and HDL-ApoE at Day 84; • To evaluate the effect of obicetrapib 10 mg+ezetimibe 10 mg combination therapy and obicetrapib 10 mg monotherapy, when used as an adjunct to high-intensity statin therapy, on the proportion of participants achieving predefined LDL-C targets at Day 84; • To assess the mean trough plasma levels of obicetrapib 10 mg+ezetimibe 10 mg combination therapy and obicetrapib 10 mg monotherapy at steady state on Days 28, 84, and 112; and • To evaluate the safety and tolerability profiles of obicetrapib 10 mg+ezetimibe 10 mg combination therapy and obicetrapib 10 mg monotherapy, when used as an adjunct to high-intensity statin therapy, assessed by clinical laboratory values and incidence of AEs.
This study will be a placebo-controlled, double-blind, randomized, Phase 2 study to evaluate the efficacy, safety, and tolerability of obicetrapib 10 mg, both in combination with ezetimibe 10 mg and as monotherapy, as an adjunct to high-intensity statin therapy. This study will take place at approximately 20 sites in the United States.
Up to 2 weeks after the Screening Visit, participants will return to the site on Day 1 (Visit 2) and confirm study eligibility before being randomized and beginning treatment. Approximately 114 eligible participants (38 participants per treatment group) will be randomized in a 1:1:1 ratio to 1 of the following treatment groups: • Combination therapy: Obicetrapib 10 mg+ezetimibe 10 mg (administered as one 10 mg obicetrapib tablet and one 10 mg ezetimibe capsule); • Obicetrapib monotherapy: Obicetrapib 10 mg (administered as one 10 mg obicetrapib tablet and 1 placebo capsule); or • Placebo (administered as 1 placebo tablet and 1 placebo capsule).
The exploratory efficacy endpoints include the following: • Percent change from Day 1 to Day 84 in non-HDL-C, VLDL-C, HDL-C, TG, ApoE, Lp(a), and HDL-ApoE for the obicetrapib 10 mg+ezetimibe 10 mg combination treatment group compared with the placebo group and for the obicetrapib 10 mg monotherapy treatment group compared with the placebo group; and • Proportion of participants at Day 84 that achieve LDL-C<2.6 mmol/L (<100 mg/dL), LDL-C<1.8 mmol/L (<70 mg/dL), and LDL-C<1.3 mmol/L (<50 mg/dL) for the obicetrapib 10 mg+ezetimibe 10 mg combination treatment group compared with the placebo group and for the obicetrapib 10 mg monotherapy treatment group compared with the placebo group.
Blood samples for the lipid profile must be obtained under fasting conditions (ie, after the participant has fasted for approximately 10 hours). For the purposes of this study, fasting will be defined as nothing by mouth except water and any essential medications. If a participant is not fasting, the Investigator should reschedule the visit as soon as possible. LDL-C level will be calculated using the Friedewald equation unless TG≥400 mg/dL or LDL-C≤50 mg/dL; in both cases, LDL-C level will be measured directly by preparative ultracentrifugation, also referred to as beta quantification. Additionally, LDL-C will be measured by preparative ultracentrifugation, also referred to as beta quantification, at baseline (Visit 2) and at the end of the 12-week Treatment Period (Visit 4) for all participants.
The Modified ITT (mITT) Population will include all participants in the ITT Population who receive at least 1 dose of any study drug and have a baseline value for the LDL-C assessment. […]

LDL-C = conditions: cited from earlier work
[3] = TA-8995-07, healthy males; cited from earlier work
[4] = ROSE2 phase 2b clinical trial - safety and tolerability (adverse events); assay type: in vivo, human; conditions: All Randomized Participants; obicetrapib 10 mg (N = 39), obicetrapib 10 mg + ezetimibe 10 mg (N = 40)
Experimental: as §1
The safety and tolerability profile of obicetrapib 10 mg, both in combination with ezetimibe 10 mg and as monotherapy, will be assessed by clinical laboratory assessments (chemistry and hematology), vital signs, physical examinations, and the incidence of AEs.
An AE can therefore be any unfavorable and/or unintended sign (including an abnormal laboratory finding), symptom, or disease temporally associated with the use of an investigational medicinal product, whether or not related to the investigational medicinal product. All AEs, including observed or volunteered problems, complaints, or symptoms, are to be recorded on the appropriate eCRF.
AEs, which include clinical laboratory assessment variables, will be monitored and documented from the time of first dose of study treatment until completion of Visit 5. Participants should be instructed to report any AE that they experience to the Investigator, whether or not they think the event is due to study drug. Beginning at the date of the first dose of study treatment, Investigators should make an assessment for AEs at each visit and record the event on the appropriate AE eCRF.
The Investigator will assess the severity (intensity) of each AE as mild, moderate, or severe, and will also categorize each AE as to its potential relationship to study drug using the categories of yes or no.
• Mild—An event that is easily tolerated and generally not interfering with normal daily activities. • Moderate—An event that is sufficiently discomforting to interfere with normal daily activities. • Severe—An event that is incapacitating with inability to work or perform normal daily activities.
An AE or adverse reaction is considered serious if, in the view of either the Investigator or Sponsor, it results in any of the following outcomes: • Death; • A life-threatening AE;
The Safety Population will include all participants who receive at least 1 dose of any study drug. Treatment classification will be based on the actual treatment received. The Safety Population will be the primary population used for the safety analyses.

ApoA1 = conditions: TA-8995-03; 10 mg daily dose, mild dyslipidemia; cited from earlier work

T1 sequence (P08183 whole entry): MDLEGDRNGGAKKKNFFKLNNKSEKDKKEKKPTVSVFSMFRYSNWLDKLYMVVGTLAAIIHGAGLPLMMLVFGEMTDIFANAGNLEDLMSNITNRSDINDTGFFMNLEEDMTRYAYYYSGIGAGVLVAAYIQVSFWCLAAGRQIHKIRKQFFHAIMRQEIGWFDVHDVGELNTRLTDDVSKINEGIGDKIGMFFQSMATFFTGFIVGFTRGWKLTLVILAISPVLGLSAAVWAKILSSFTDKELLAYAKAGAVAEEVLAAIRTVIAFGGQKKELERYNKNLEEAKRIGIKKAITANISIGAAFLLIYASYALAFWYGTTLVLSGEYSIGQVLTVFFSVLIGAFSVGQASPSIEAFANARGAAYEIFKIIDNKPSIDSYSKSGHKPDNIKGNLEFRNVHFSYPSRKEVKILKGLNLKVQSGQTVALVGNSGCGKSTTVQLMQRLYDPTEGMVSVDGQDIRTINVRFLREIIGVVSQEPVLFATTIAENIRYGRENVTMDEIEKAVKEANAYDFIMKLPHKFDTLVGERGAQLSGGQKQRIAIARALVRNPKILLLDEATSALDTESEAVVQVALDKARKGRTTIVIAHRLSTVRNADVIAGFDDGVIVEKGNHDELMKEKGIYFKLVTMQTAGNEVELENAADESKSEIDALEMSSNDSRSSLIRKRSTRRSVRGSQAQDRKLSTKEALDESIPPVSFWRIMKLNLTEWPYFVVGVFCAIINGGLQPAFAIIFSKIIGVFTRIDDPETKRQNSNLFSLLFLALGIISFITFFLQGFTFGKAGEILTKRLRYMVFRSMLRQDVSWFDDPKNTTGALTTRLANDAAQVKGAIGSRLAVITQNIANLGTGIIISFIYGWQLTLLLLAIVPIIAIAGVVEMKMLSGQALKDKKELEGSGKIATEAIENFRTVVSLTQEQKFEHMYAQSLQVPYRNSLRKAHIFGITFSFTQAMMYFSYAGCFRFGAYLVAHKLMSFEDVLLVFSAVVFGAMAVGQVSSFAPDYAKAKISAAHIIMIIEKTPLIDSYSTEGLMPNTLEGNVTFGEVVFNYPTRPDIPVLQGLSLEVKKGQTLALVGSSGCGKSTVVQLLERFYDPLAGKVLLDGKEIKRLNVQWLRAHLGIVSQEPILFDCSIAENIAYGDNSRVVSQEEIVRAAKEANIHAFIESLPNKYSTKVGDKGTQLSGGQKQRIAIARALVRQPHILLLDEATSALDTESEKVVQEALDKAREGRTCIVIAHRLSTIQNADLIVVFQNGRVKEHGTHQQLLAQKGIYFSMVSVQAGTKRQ

With `CCOC(=O)N1c2ccc(C(F)(F)F)cc2[C@@H](N(Cc2cc(C(F)(F)F)cc(C(F)(F)F)c2)c2ncc(OCCCC(=O)O)cn2)C[C@H]1CC` [Obicetrapib, {4-[(2-{[3,5-bis(trifluoromethyl)benzyl][(2R,4S)-1-(ethoxycarbonyl)-2-ethyl-6-(trifluoromethyl)-1,2,3,4-tetrahydroquinolin-4-yl]amino}pyrimidin-5-yl)oxy]butanoic acid}] as the compound, how does the “adverse effect on critical physiological systems” value [1] read?
The value was “no adverse effect”.

What about the “effect on P-glycoprotein activity” value (P-glycoprotein) of the same compound?
The value was “no significant effect”.

What about the tolerability [2] of the same compound?
Its tolerability is “generally well tolerated”.

And the “Lp(a) Change from Baseline to Day 84, Mean” value (Lp(a))?
The value was -19.71 nmol/L.

And the “Lp(a) Change from Baseline to Day 84, Median” value (Lp(a))?
The value was -4.50 nmol/L.

What about the “Lp(a) Day 84, Mean” value (Lp(a)) of the same compound?
Its value is 77.96 nmol/L.

What about the “Lp(a) Day 84, Median” value (Lp(a)) of the same compound?
Its value is 26.25 nmol/L.

What about the “Lp(a) Percent Change from Baseline to Day 84 (%), Mean” value (Lp(a)) of the same compound?
The value was −15.16%.

And the “Lp(a) Percent Change from Baseline to Day 84 (%), Median” value (Lp(a))?
Its value is −11.95%.

And the LDL-C reduction (LDL-C; TA-8995-03, 10 mg daily dose, mild dyslipidemia)?
The LDL-C reduction was 45.4%.

And the “additional reduction in LDL-C” value (LDL-C; obicetrapib 10 mg on top of atorvastatin 20 mg)?
Its value is 50.3%.

And the absorption [3]?
Its absorption is “steadily absorbed”.

What about the “principal route of excretion” value [3] of the same compound?
Its value is “in the feces”.

What about the “Primary reason for early study discontinuation: ADVERSE EVENT, (%)” value [4] of the same compound?
Its value is “(2.6) %”.

What about the “Primary reason for treatment discontinuation: ADVERSE EVENT, (%)” value [4] of the same compound?
Its value is “(5.1) %”.

And the ApoA1 increase (ApoA1)?
The ApoA1 increase was 63.4%.
